Assay [1] has as its system cardiac allograft (C57BL/6 H-2b donor heart in Balb/c H-2d recipient). In words: mouse model of cardiac allograft transplantation (graft survival). It counts as in vivo. How it is done: Inbreed C57BL/6 H-2^b and Balb/c H-2^d female mice, 8-10 weeks old, 20-25 g, were used as donor and recipient, respectively. Heterotopic heart transplantation was performed by implanting the donor heart on the neck of recipients using conventional microsurgery techniques. Graft beating was checked daily by inspection and palpation. Cessation of beating indicated graft rejection, which was confirmed by histological examination. Housing and all experimental animal procedures were approved by the Institutional Animal Care and Research Advisory Committee of the KU Leuven.

The test system of assay [2] is Human peripheral blood mononuclear cells (PBMCs) as Responder cells, RPMI 1788 Stimulator cells. In words: Mixed Lymphocyte Reaction (MLR) test. It counts as cell-based. The conditions noted are these: Homo sapiens, RPMI-1788, lowest concentration giving 50% inhibition of the MLR; 6 days coculture, 3H-thymidine incorporation. In a few lines: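 Proliferation was read as cpm after a 1 μCi ^3H-thymidine pulse on day 5 and harvest 18 h later, then expressed as % inhibition relative to an MLR without compound. The 6-day triplicate cocultures combined 0.12×10^6 Ficoll-isolated human PBMCs with 0.045×10^6 mitomycin C-inactivated RPMI 1788 cells in RPMI 1640 with 10% FCS.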
For orientation: Incorporation of labelled thymidine or its analogues reports DNA synthesis.

For the compound `Cc1ccc(NC(=O)N2CCN(c3nc(N)nc4sc(-c5cccnc5)nc34)CC2)cc1` [Example 222, 4-(5-amino-2-(pyridin-3-yl)thiazolo[5,4-d]pyrimidin-7-yl)-N-p-tolylpiperazine-1-carboxamide], in assay [1] (Example 449, 20 mg/kg per day), the graft survival result is given as “up to 13 days”. Further, the “grafts continuously functioning after stopping the treatment on day 30” value in assay [1] (Example 449, 40 mg/kg per day) is 3/4. Further, the “grafts with continuous survival during treatment” value in assay [1] (Example 449, 40 mg/kg per day by daily gavage until day 30) is recorded as 4/6. Turning to `Nc1nc(N2CCN(S(=O)(=O)Cc3ccccc3)CC2)c2cc(-c3ccc(F)cc3)sc2n1` [Example 344, 4-(4-(benzylsulfonyl)piperazin-1-yl)-6-(4-fluorophenyl)thieno[2,3-d]pyrimidin-2-amine], in assay [2], the IC50 was over 10000 nM. `N#Cc1ccc(NC(=O)N2CCN(c3nc(N)nc4sc(Cc5ccc(F)cc5)nc34)CC2)cc1` [Example 232, 4-(5-amino-2-(4-fluorobenzyl)thiazolo[5,4-d]pyrimidin-7-yl)-N-(4-cyanophenyl)piperazine-1-carboxamide] registered an IC50 in assay [2] of 860 nM.

Regarding `Nc1nc(N2CCN(C(=O)COc3ccc(Cl)cc3)CC2)c2nc(-c3ccc(Br)cc3)[nH]c2n1` [Example 391, 1-(4-(2-amino-8-(4-bromophenyl)-9H-purin-6-yl)piperazin-1-yl)-2-(4-chlorophenoxy)ethanone], in assay [2], the half-maximal inhibitory concentration (IC50) was 260 nM. Still for that read-out and setting: to `Nc1nc(N2CCN(C(=O)COc3ccc(Cl)cc3)CC2)c2nc(-c3cccc(Cl)c3)[nH]c2n1` [Example 393, 1-(4-(2-amino-8-(3-chlorophenyl)-9H-purin-6-yl)piperazin-1-yl)-2-(4-chlorophenoxy)ethanone] belongs 660 nM; to `CC(=O)N1CCN(c2nc(N)nc3[nH]c(-c4ccc(F)cc4)nc23)CC1` [Example 408, 1-(4-(2-amino-8-(4-fluorophenyl)-9H-purin-6-yl)piperazin-1-yl)ethanone], over 10000 nM.

In turn, `CC(C)(Oc1ccc(Cl)cc1)C(=O)N1CCN(c2nc(N)nc3sc(-c4cccnc4)nc23)CC1` [Example 274, 1-(4-(5-amino-2-(pyridin-3-yl)thiazolo[5,4-d]pyrimidin-7-yl)piperazin-1-yl)-2-(4-chlorophenoxy)-2-methylpropan-1-one] yielded an IC50 in assay [2] of over 10000 nM.

Compound `Nc1nc(N2CCN(C(=O)COc3ccc(Br)cc3)CC2)c2nc(Cc3ccc(F)cc3)sc2n1` [Example 231, 1-(4-(5-amino-2-(4-fluorobenzyl)thiazolo[5,4-d]pyrimidin-7-yl)piperazin-1-yl)-2-(4-bromophenoxy)ethanone] yielded an IC50 in assay [2] of 550 nM. Turning to `Nc1nc(N2CCN(C(=O)COc3ccc(Cl)cc3)CC2)c2nc(-c3cccnc3)sc2n1` [Example 121a, 5-amino-7-[4-(4-chlorophenoxyacetyl)piperazin-1-yl]-2-(pyridine-3-yl)thiazolo[5,4-d]pyrimidine], the IC50 in assay [2] stood at 50 nM. For the same compound, the “grafts with continuous survival during treatment” value in assay [1] (Example 448, 40 mg/kg by daily oral gavage until day 30, n=4) was 3 out of 4. Moreover, the “graft beating after withdrawal of the treatment” value in assay [1] (Example 448, 40 mg/kg oral, treatment stopped day 30) is on record as “continued beating after withdrawal of the treatment (up to 60 days)”. In the case of `Nc1nc(N2CCN(C(=O)COc3cccc([N+](=O)[O-])c3)CC2)c2nc(-c3ccc(F)cc3)oc2n1` [Example 193, 5-amino-2-(4-fluorophenyl)-7-(4-[2-(3-nitrophenoxy)acetyl]-piperazin-1-yl)-oxazolo[5,4-d]pyrimidine], the half-inhibitory concentration (IC50) in assay [2] worked out at 700 nM. On the same count and under the same terms, to `Cc1ccc(-c2nc3c(N4CCN(C(=O)COc5ccc(Cl)cc5)CC4)nc(N)nc3s2)cc1` [Example 295, 1-(4-(5-amino-2-p-tolylthiazolo[5,4-d]pyrimidin-7-yl)piperazin-1-yl)-2-(4-chlorophenoxy)ethanone] belongs 350 nM; to `Nc1nc(N2CCN(C(=O)C3CCCCC3)CC2)c2cc(-c3ccc(F)cc3)sc2n1` [Example 345, (4-(2-amino-6-(4-fluorophenyl)thieno[2,3-d]pyrimidin-4-yl)piperazin-1-yl)(cyclohexyl)methanone], over 10000 nM. On the same count and under the same terms, in the case of `Nc1nc(N2CCCN(C(=O)COc3ccc(Cl)cc3)CC2)c2nc(CCc3ccc(F)cc3)sc2n1` [Example 138, 5-amino-2-[2-(4-fluorophenyl)ethyl]-7-(4-[2-(4-chlorophenoxy)acetyl]homopiperazin-1-yl)-thiazolo[5,4-d]pyrimidine] it was 2100 nM; in that of `Nc1nc(N2CCN(c3nccs3)CC2)c2nc(-c3ccc(F)cc3)[nH]c2n1` [Example 409, 8-(4-fluorophenyl)-6-(4-(thiazol-2-yl)piperazin-1-yl)-9H-purin-2-amine], 7470 nM.

For `Nc1nc(N2CCN(C(=O)COc3ccc(Cl)cc3)CC2)c2nc(CCc3cccs3)sc2n1` [Example 154, 5-amino-2-(2-thiophen-2-ylethyl)-7-(4-[2-(4-chloro-phenoxy)acetyl]piperazin-1-yl)thiazolo[5,4-d]pyrimidine], the IC50 in assay [2] was found to be 790 nM. The same measure, in the same setting: in the case of `Nc1nc(N2CCN(C(=O)COc3ccc(Cl)cc3)CC2)c2nc(-c3ccc(OC(F)(F)F)cc3)[nH]c2n1` [Example 395, 1-(4-(2-amino-8-(4-(trifluoromethoxy)phenyl)-9H-purin-6-yl)piperazin-1-yl)-2-(4-chlorophenoxy)ethanone] it was over 10000 nM. Still for that read-out and setting: to `O=C(COc1ccc(Cl)cc1)N1CCN(c2nc(-c3ccccc3)nc3sc(-c4ccc(F)cc4)cc23)CC1` [Example 352, 2-(4-chlorophenoxy)-1-(4-(6-(4-fluorophenyl)-2-phenylthieno[2,3-d]pyrimidin-4-yl)piperazin-1-yl)ethanone] belongs over 10000 nM; to `Cc1cccc(OCC(=O)N2CCN(c3nc(N)nc4sc(-c5ccccc5)cc34)CC2)c1` [Example 371, 1-(4-(2-amino-6-phenylthieno[2,3-d]pyrimidin-4-yl)piperazin-1-yl)-2-(m-tolyloxy)ethanone], 210 nM.

Regarding `CCCCc1nc(N2CCN(C(=O)COc3ccc(Cl)cc3)CC2)c2cc(-c3ccc(F)cc3)sc2n1` [Example 313, 1-(4-(2-butyl-6-(4-fluorophenyl)thieno[2,3-d]pyrimidin-4-yl)piperazin-1-yl)-2-(4-chlorophenoxy)ethanone], the half-maximal inhibitory concentration (IC50) in assay [2] is 1330 nM. Same read-out and setting: in the case of `Nc1nc(N2CCN(C(=O)COc3ccc(OC(F)(F)F)cc3)CC2)c2nc(-c3cccnc3)sc2n1` [Example 273, 1-(4-(5-amino-2-(pyridin-3-yl)thiazolo[5,4-d]pyrimidin-7-yl)piperazin-1-yl)-2-(4-trifluoromethoxyphenoxy)ethanone] it was 45 nM. On the same count and under the same terms, to `Nc1nc(N2CCN(C(=O)COc3ccc(F)cc3)CC2)c2nc(-c3ccco3)sc2n1` [Example 209, 1-(4-(5-amino-2-(furan-2-yl)thiazolo[5,4-d]pyrimidin-7-yl)piperazin-1-yl)-2-(4-fluorophenoxy)ethanone] belongs 55 nM; to `Cc1ccc(CCc2nc3c(N4CCN(C(=O)COc5ccc(Br)cc5)CC4)nc(N)nc3s2)cc1` [Example 258, 1-(4-(5-amino-2-(4-methylphenethyl)thiazolo[5,4-d]pyrimidin-7-yl)piperazin-1-yl)-2-(4-bromophenoxy)ethanone], 930 nM; to `COc1ccc(CCc2nc3c(N4CCN(C(=O)COc5ccc(Br)cc5)CC4)nc(N)nc3s2)cc1OC` [Example 256, 1-(4-(5-amino-2-(3,4-dimethoxyphenethyl)thiazolo[5,4-d]pyrimidin-7-yl)piperazin-1-yl)-2-(4-bromophenoxy)ethanone], 740 nM.

Consider `CSc1nc2c(N3CCN(C(=O)COc4ccc(Cl)cc4)CC3)nc(N)nc2n1C` [Example 428, 1-(4-(2-amino-9-methyl-8-(methylthio)-9H-purin-6-yl)piperazin-1-yl)-2-(4-chlorophenoxy)ethanone], for which the concentration for half-maximal inhibition (IC50) in assay [2] is 300 nM. In assay [2], `Nc1nc(N2CCN(C(=O)COc3ccc(Cl)cc3)CC2)c2nc(C3CC3)oc2n1` [Example 185, 5-amino-2-cyclopropyl-7-[4-(4-chlorophenoxyacetyl)piperazin-1-yl]-oxazolo[5,4-d]pyrimidine] had a half-inhibitory concentration (IC50) of 1760 nM. Same read-out and setting: to `Nc1nc(N2CCN(CC(=O)NCCc3ccccc3)CC2)c2nc(CCc3ccc(F)cc3)sc2n1` [Example 141, 5-amino-2-[2-(4-fluorophenyl)ethyl]-7-(4-(phenethylcarbamoyl-methyl)piperazin-1-yl)-thiazolo[5,4-d]pyrimidine] belongs 1410 nM; to `O=C(COc1ccc(Cl)cc1)N1CCN(c2ncnc3sc(CCc4ccc(F)cc4)nc23)CC1` [Example 303, 1-(4-(2-(4-fluorophenethyl)thiazolo[5,4-d]pyrimidin-7-yl)piperazin-1-yl)-2-(4-chlorophenoxy)ethanone], 5590 nM. Still for that read-out and setting: in the case of `Nc1nc(N2CCN(C(=O)c3ccc(Cl)cc3)CC2)c2nc(CCc3ccc(F)cc3)oc2n1` [Example 195, 5-amino-2-[2-(4-fluorophenyl)ethyl]-7-(4-[4-chlorobenzoyl]piperazin-1-yl)-oxazolo[5,4-d]pyrimidine] it was over 10000 nM; in that of `COc1cccc(-c2nc3c(N4CCN(C(=O)COc5ccc(Cl)cc5)CC4)nc(N)nc3s2)c1` [Example 124, 5-amino-7-[4-(4-chlorophenoxyacetyl)piperazin-1-yl]-2-(3-methoxyphenyl)thiazolo[5,4-d]pyrimidine], 120 nM; in that of `Nc1nc(N2CCN(C(=O)COc3ccc(Cl)cc3)CC2)c2nc(-c3ccc(F)cc3)[nH]c2n1` [Example 389, 1-(4-(2-amino-8-(4-fluorophenyl)-9H-purin-6-yl)piperazin-1-yl)-2-(4-chlorophenoxy)ethanone], 810 nM.

One may read the IC50 as the concentration that gives 50% inhibition. High values mean weaker potency, low ones greater potency.

Values taken from US9221822B2, “Thiazolopyrimidine modulators as immunosuppressive agents” (Katholieke Universiteit Leuven, K.U.Leuven R&D, priority 2009, dated 2015).
